Measured values from patent US10364470B2, “Long non-coding RNA expressed in aggressive cancer” (The Regents of the University of California, priority 2014, dated 2019).

Tests used:
Format in all cases: cell-based, human
BT549 cells = test: Growth rate of BT549 cells after SAILOR knockdown
From the text: (§1) The effect of SAILOR on the growth rate of BT549 cells was studied. SAILOR expression was reduced by ˜80% in BT549 cell lines with a short-hairpin RNA (shRNA), 5′-[…]-3′ (SEQ ID NO:14), which targets SAILOR exon 4 at sequence […] (SEQ ID NO:15) (FIG. 5).

SATB1 = SATB1 transcription or protein level after SAILOR knockdown; conditions: BT549 cells
SAILOR = SAILOR knockdown with shRNA in BT549 cell lines
From the text: as §1

Question: With “5′-GGTGGAAGAGTAAACTGTTCCCGAAGGAACAGTTTACTCTTCCACC-3′ (expressed or natural sequence) [shRNA]” as the substance, how does the “growth rate of SAILOR knockdown cells” value (BT549 cells) read?
Answer: slowed growth rate

Question: And the “effect of reduced SAILOR levels on SATB1 transcription or protein level” value (SATB1)?
Answer: did not affect

Question: And the “SAILOR expression reduced (knock down)” value (SAILOR)?
Answer: ~80%
